# US20080255177A1, “ANTI-TUMOR ACTIVITY OF CCI-779 IN PAPILLARY RENAL CELL CANCER” (Wyeth, priority 2007, published 2008)
# Where “and” joins values, the source holds several entries; their conditions need not be identical. Identical values can stand only once.
# Test system: advanced metastatic renal cell carcinoma
# Experiment: Phase III study of CCI-779 (temsirolimus) vs αIFN as first-line therapy
# Format: in vivo
# Conditions: for OS median: first-line, αIFN 3 MU escalating to 18 MU s.c. 3 times/week or CCI-779 25 mg i.v. weekly
# From the text: In this phase III study, 626 advanced metastatic renal cell carcinoma patients from 26 countries were randomized to αIFN or CCI-779 (temsirolimus) as first-line therapy. This group is a very poor prognosis group of patients with many risk factors for early death. Patients received 3 million units (MU) of αIFN-alone subcutaneously 3 times/week, escalating to 18 MU or 25-mg CCI-779 intravenous infusion weekly.
# Eligibility for this study required histologically confirmed, advanced (stage IV or recurrent disease) RCC with no prior systemic therapy for the disease. Subjects with central nervous system metastases, prior anticancer therapy for RCC and prior investigational therapy/agents within 4 weeks of randomization were excluded from the study.
# The primary objective of this study was efficacy with a primary endpoint of overall survival. Secondary objectives of this study were safety, health outcomes, and additional efficacy endpoints. The secondary efficacy endpoints of this study were an evaluation of progression-free survival, response rate (complete and partial responses), clinical benefit rate, the duration of overall response, time to treatment failure, and health outcomes measurements. In addition, subject responses across all 3 treatment arms were evaluated based on screening tumor expression of proteins involved in the AKT-mTOR pathway. Other planned and post-hoc analyses were performed to assess influence of tumor histology (clear cell vs. non-clear cell), age (vs. >/=), and prognostic-risk groups (intermediate vs. poor).
# [1] = patients <65yo, previously untreated advRCC, vs. αIFN
# [2] = patients with clear-cell tumor histology
# [3] = patients with other (non clear-cell) tumor histology
# [4] = previously untreated clear-cell advRCC, vs. αIFN
# [5] = previously untreated non clear-cell advRCC, TEMSR alone vs. αIFN
smiles,measurement,setting,value
"CO[C@H]1C[C@@H]2CC[C@@H](C)[C@@](O)(O2)C(=O)C(=O)N2CCCC[C@H]2C(=O)O[C@H]([C@H](C)C[C@@H]2CC[C@@H](OC(=O)C(C)(CO)CO)[C@H](OC)C2)CC(=O)[C@H](C)/C=C(\C)[C@@H](O)[C@@H](OC)C(=O)[C@H](C)C[C@H](C)/C=C/C=C/C=C/1C [TEMSR, rapamycin 42-ester with 3-hydroxy-2-(hydroxymethyl)-2-methylpropionic acid]","OS hazard ratio, TEMSR vs. αIFN",patients <65 years old,0.62 and 0.61
same,"PFS hazard ratio, TEMSR vs. αIFN",patients <65 years old,0.61 and 0.62
same,OS improved by,[1],64%
same,PFS prolonged by,[1],61%
same,reduction in risk of death,[1],39%
same,risk of death or disease progression reduced by,[1],38%
same,"difference in OS or PFS, TEMSR or αIFN",patients >/=65 years old,no difference
same,"OS HR, TEMSR:IFN",[2],0.82
same,"PFS HR, TEMSR:IFN",[2],0.76
same,PFS median,[2],5.5 mo
same,OS median,[2],10.7 mo
same,"OS HR, TEMSR:IFN",[3],0.49
same,"PFS HR, TEMSR:IFN",[3],0.38
same,PFS median,[3],7.0 mo
same,OS median,[3],11.6 mo
same,OS improved by,[4],22%
same,PFS prolonged by,[4],31%
same,reduction in risk of death,[4],18%
same,risk of death or disease progression reduced by,[4],24%
same,OS improved by,[5],104%
same,PFS prolonged by,[5],163%
same,reduction in risk of death,[5],51%
same,risk of death or disease progression reduced by,[5],62%
same,side effect profile vs. αIFN,stated for patients >/=65 years old,better side effect profile than αIFN
